From US20250327027A1, “METHODS TO GENERATE ENHANCED TUMOR INFILTRATING LYMPHOCYTES THROUGH MICROFLUIDIC DELIVERY” (STEMCELL TECHNOLOGIES CANADA INC., priority 2021, published 2025)
“And” between values parts separate entries of the source, which are not always exact repeats. Equal entries are not always repeated.

Key:
TILs = experiment: Effect of cytokine (IL-2 or IL-15) during TIL expansion (colorectal tumor); type: cell-based; conditions: for Cell Count on Day 13 / Viability on Day 13: replicate wells
Experimental: Briefly, freshly resected colorectal tumor was rinsed in 1× Hank's Balanced Salt Solution (HBSS) with 10 µg/mL gentamicin and dissected into 8-27 mm^3 fragments using a forceps and scalpel. […] The G-Rex6M plate was then placed in a 37° C., 5% CO2 incubator for 3 days.
On day 3, the G-Rex6M plate was removed from the incubator. […] The G-Rex6M plate was returned to the 37° C., 5% CO2 incubator. On day 7 and 10, the G-Rex6M plate was removed from the incubator. […] The G-Rex6M plate was returned to the 37° C., 5% CO2 incubator.
[…] The number and viability of the TILs was assessed using a NucleoCounter NC-200.

[1] = system: melanoma and colorectal TILs; experiment: Post thaw analysis of cryopreserved squeeze processed TILs (effect of DMSO and HSA); type: cell-based; conditions: DMSO 0% to 5%
Experimental: To evaluate whether freeze-thaw (including any effect from one or more of the cryopreservatives) has an effect on the squeeze processed TILs described herein, the following methods were used and the mRNA translation and phenotypic expression were assessed. Briefly, cryopreserved, squeezed melanoma and colorectal TILs were thawed and resuspended in CTS OpTmizer media. Post thaw cell recovery and viability were measured via NC-200. Cells were plated in tissue culture-treated plates and incubated for 4, 24 hours, and 8 days in a 37° C. incubator. The TILs were squeezed were assessed at each time point including t=0 (immediately post thaw) by flow cytometry for viability, surface levels of mbIL-2 and mbIL-12, and phenotypic markers such as CCR7, CD45RO, CD62L, CD127, KLRG-1, CD25, CD69, CD39, CD103, and CD25.
To assess the potential impact from DMSO, the following TILs were formulated in varying concentrations of DMSO (i.e., 0%, 1.25%, 2.5%, and 5%): (1) TILs squeeze processed with mRNA encoding membrane-bound LL-2 and mRNA encoding IL-12; and (2) non-squeeze processed TILs. Each of the formulated samples also contained 5% human serum albumin. Then, the TILs were cryopreserved and subsequently thawed as described above.

post-REP TILs [2] = experiment: Engineered TIL resistance to intrinsic apoptosis induced by Venetoclax and S63548 (Apotracker, Bcl-2 FACS); type: cell-based, human
Experimental: Fresh post-REP TILs were collected from a 6-well G-Rex plate, centrifuged at 400 rcf at room temperature, and then washed and resuspended to 3-10M/mL in AIM V and transferred to a T25 flask and cultured at 37° C. for 24 hr. The cells were then prepared for squeeze-processing. The cells were counted, filtered through a 40-um cell strainer, washed, and the concentration was adjusted to 60M/mL by adding XVivo-15.
As shown above in Table 13, Group A was used as a control (i.e., not contacted with any payload and not squeeze processed). Group 13 was squeeze processed without any payload at room temperature using a microfluidic constriction (70 μm depth, 4.5 un width, and 10 μm length) at 30 psi. Groups C-H were squeeze processed at room temperature with the payloads shown above, i.e., Group C: mbIL-7 mRNA; Group D: Bcl-2 mRNA; Group E: mbIL-7 mRNA+Bcl-2 mRNA; Group F: mbIL-2 mRNA; Group G: mbIL-2 mRNA+Bcl-2 mRNA; Group H: mbIL-2 mRNA+mbIL-7 mRNA+Bcl-2 mRNA. Groups C-H were squeeze processed using the same conditions as in Group B (i.e., microfluidic constriction: 70 μm depth, 4.5 μm width, and 10 μm length; at 30 psi). […]
At 24 hours, 200 ul of cells were aspirated and centrifuged at 400 ref for 4 minutes at room temperature. […] The cells were then analyzed using an Attune Flow cytometer.

post-REP TILs [3] = experiment: mbIL-7 and Bcl-2 engineered TILs resistance to rhIL-7 sink effect (viability); type: cell-based, human; conditions: day 5; 250 μg/mL mbIL-7 mRNA
Experimental: Three 50M cell vials were thawed and diluted with FACs buffer. […] Cells were transferred to a T75 flask and cultured at 37° C. To allow the cells to recover from thaw, cells were cultured for 72 hr.
Cells were prepared for squeeze-processing. Cells were collected, centrifuged at 400 rcf at room temperature, and then washed, resuspended to 3-10M/mL in AIM V media without rhIL-2 to remove rhIL-2-dependent support prior to squeeze processing, transferred to a T25 flask, and cultured at 37° C. for 24 hours. The cells were then counted, filtered through a 40-um cell strainer, washed, and the concentration was adjusted to 50M/mL by adding XVivo-15.
As shown above in Table 19, Group A was used as a control (i.e., not contacted with any payload and not squeeze processed). Group 13 was squeeze processed without any payload at room temperature using microfluidic constrictions (70 μm depth, 4.5 m width, and 10 μm length) at 30 psi. […]
At days 1 and 5, 200 ul of cells were aspirated and centrifuged at 400 rcf for 4 minutes at room temperature. […] The cells were then analyzed using an Attune Flow cytometer.

post-REP TILs [4] = experiment: Proliferative capacity of CD62L positive mbIL-2 and mbIL-12 engineered TILs; type: cell-based, human; conditions: baseline CD62L positive and baseline CD62L negative fractions; day 4
Experimental: Fresh TILs from two donors on day 14 of REP were prepared for squeeze-processing Donors were processed in parallel throughout the experiment. TILs were centrifuged at 400 rcf for 4 minutes at room temperature. The supernatant was aspirated, and the cell populations were separately resuspended in 1 mL FACs buffer Cells were incubated at 4 C for 20 minutes with fluorescent anti-human antibody targeting CD62L. After incubation 150 μL of FACs isolation buffer were added to each sample and the samples were spun at 400 rcf for 4 minutes. Cells were then isolated using magnetic beads that select based on fluorescence as a proxy for CD62L expression. Cell fractions were incubated for 20 minutes at 37 C with 1 μM final cytoplasmic dyes; CD62L positive cells were incubated with dye that excites/emits at 405/450 nm and CD62L negative cells were incubated with dye that excites/emits at […]. The cells were then pooled, counted, filtered through a 40-um cell strainer, washed, and the concentration was adjusted to 50-80M/mL by adding XVivo-15.
As shown above in Table 18, Groups A and E were used as controls (i.e., not contacted with any payload and not squeeze processed). […]
At days 1, 4, and 6, 200 ul of cells were aspirated and centrifuged at 400 rcf for 4 minutes at room temperature. […] The cells were then analyzed using an Attune Flow cytometer.

## IL-15: recombinant IL-15 added to culture media
TILs; 500 U/mL IL-15
  Cell Count on Day 13: 1.92 × 10^7 and 8.32 × 10^6
  Viability on Day 13: 96.5% and 93.3%
TILs; 3,000 U/mL IL-15
  Cell Count on Day 13: 3.34 × 10^6 and 2.96 × 10^7
  Viability on Day 13: 94.8% and 91.3%
TILs; colorectal tumor fragments
  TIL expansion in culture: promote TIL expansion

## C[S+](C)[O-] [DMSO]
[1]
  translation of the delivered mRNAs post-thaw: did not have a negative impact on the translation of the delivered mRNAs
[1]; squeeze-processed and unprocessed TILs
  viability over time after thaw: less DMSO also led to lower viability over time after thaw

## CC1(C)CCC(CN2CCN(c3ccc(C(=O)NS(=O)(=O)c4ccc(NCC5CCOCC5)c([N+](=O)[O-])c4)c(Oc4cnc5[nH]ccc5c4)c3)CC2)=C(c2ccc(Cl)cc2)C1 [Venetoclax]
post-REP TILs [2]; 10, 100 or 1000 nM each of Venetoclax and S63548, 24 hours
  apoptosis as measured by Apotracker dye: induced apoptosis
post-REP TILs [2]; Venetoclax and S63548 together
  concentration with strongest dynamic range of cell killing: 10 nM

B1: rhIL-7: recombinant human (rh) IL-7 (protein, UniProt P13232 26-177, looked up)
Interleukin-7: DCDIEGKDGKQYESVLMVSIDQLLDSMKEIGSNCLNNEFNFFKRHICDANKEGMFLFRAARKLRQFLKMNSTGDFDLHLLKVSEGTTILLNCTGQVKGRKPAALGEAQPTKSLEENKSLKEQKKLNDLCFLKRLLQEIKTCWNKILMGTKEH
post-REP TILs [3]
  rhIL-7 support giving viability equal to mbIL-7-engineered TILs: 10 ng/mL

B2: rhIL-12: recombinant human IL-12 added to culture (protein, UniProt P29459 23-219; P29460 23-328, looked up)
Interleukin-12 subunit alpha: RNLPVATPDPGMFPCLHHSQNLLRAVSNMLQKARQTLEFYPCTSEEIDHEDITKDKTSTVEACLPLELTKNESCLNSRETSFITNGSCLASRKTSFMMALCLSSIYEDLKMYQVEFKTMNAKLLMDPKRQIFLDQNMLAVIDELMQALNFNSETVPQKSSLEEPDFYKTKIKLCILLHAFRIRAVTIDRVMSYLNAS
Interleukin-12 subunit beta: IWELKKDVYVVELDWYPDAPGEMVVLTCDTPEEDGITWTLDQSSEVLGSGKTLTIQVKEFGDAGQYTCHKGGEVLSHSLLLLHKKEDGIWSTDILKDQKEPKNKTFLRCEAKNYSGRFTCWWLTTISTDLTFSVKSSRGSSDPQGVTCGAATLSAERVRGDNKEYEYSVECQEDSACPAAEESLPIEVMVDAVHKLKYENYTSSFFIRDIIKPDPPKNLQLKPLKNSRQVEVSWEYPDTWSTPHSYFSLTFCVQVQGKSKREKKDRVFTDKTSATVICRKNASISVRAQDRYYSSSWSEWASVPCS
post-REP TILs [4]
  CD62L positive cells: enriched
